Target: T1, human CGRP receptor (Homo sapiens, UniProt O60894+Q16602)
T1 construct: SK-N-MC membranes (˜20 μg protein) are incubated for 180 minutes at ambient temperature; endogenous in cells; host or cells: SK-N-MC cells (membrane preparation)
Test: Binding studies with SK-N-MC cells (expressing the human CGRP receptor)
Conditions: SK-N-MC membranes, 125I-iodotyrosyl-CGRP displacement
Procedure: A. Binding Studies with SK-N-MC Cells (Expressing the Human CGRP Receptor)
SK-N-MC membranes (˜20 μg protein) are incubated for 180 minutes at ambient temperature with 50 pM ^125I-iodotyrosyl-Calcitonin-Gene-Related Peptide and increasing concentrations of the test substances in a total volume of […] (assay buffer: 10 mM tris, 50 mM NaCl, 5 mM MgCl2, 1 mM EDTA, pH=7.4). The incubation is ended by rapid filtration through GF/B-glass fibre filters treated with polyethyleneimine (0.1%) using a cell harvester. The protein-bound radioactivity is measured using a gamma counter. Non-specific binding is defined as the bound radioactivity after the presence of 1 μM BIBN4096BS during incubation.
The concentration binding curves are analysed using computer-aided non-linear curve fitting.

T1 sequence (Q16602 23-461): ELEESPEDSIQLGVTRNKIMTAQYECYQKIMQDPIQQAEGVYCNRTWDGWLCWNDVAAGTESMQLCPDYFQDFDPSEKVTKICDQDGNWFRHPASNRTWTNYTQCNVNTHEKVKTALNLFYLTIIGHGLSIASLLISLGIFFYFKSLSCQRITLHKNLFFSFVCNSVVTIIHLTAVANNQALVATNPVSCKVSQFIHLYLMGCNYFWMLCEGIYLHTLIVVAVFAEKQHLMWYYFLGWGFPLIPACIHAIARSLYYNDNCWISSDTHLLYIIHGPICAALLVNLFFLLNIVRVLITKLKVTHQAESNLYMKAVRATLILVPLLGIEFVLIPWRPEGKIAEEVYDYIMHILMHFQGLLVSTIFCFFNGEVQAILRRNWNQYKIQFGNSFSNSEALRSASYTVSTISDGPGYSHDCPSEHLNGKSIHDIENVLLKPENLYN
T1 sequence (O60894 27-148): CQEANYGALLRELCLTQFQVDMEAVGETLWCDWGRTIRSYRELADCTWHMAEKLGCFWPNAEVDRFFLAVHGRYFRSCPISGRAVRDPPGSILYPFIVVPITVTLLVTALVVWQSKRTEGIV

| Compound | Ki |
| --- | --- |
| O=C(c1cc(Nc2ccc3c(c2)CC2(C3)C(=O)Nc3ncccc32)ncn1)N1CCc2ccccc21 (stereo not shown) [(1)] | 0.015 µM |
| CN1C(=O)NC(=O)C12Cc1ccc(Nc3cc(C(=O)N4CCc5ccccc54)ncn3)cc1C2 (stereo not shown) [(9)] | 0.132 µM |
| O=C(c1cc(Nc2ccc3c(c2)CC2(C3)C(=O)Nc3ncccc32)ncn1)N(CC(F)(F)F)c1ccccc1 (stereo not shown) [(6)] | 0.12 µM |
| O=C1Nc2ccccc2C2(CCN(c3cc(C(=O)N4CCc5ccccc54)ncn3)CC2)O1 [(3)] | 0.535 µM |

— patent publication US8110575B2, “Compounds” (Boehringer Ingelheim International GmbH, priority 2007, dated 2012)
